Results taken from ChEMBL document CHEMBL1201862, “PubChem BioAssay data set” (2004).
Active and inactive are the calls of the source.

Assays:
Nonstructural protein 1 = Nonstructural protein 1 (Influenza A virus, UniProt Q194T2); format: functional, Influenza A virus (A/California/07/2009(H1N1))
[1] = target: Voltage-dependent T-type calcium channel subunit alpha-1H (Homo sapiens, UniProt O95180); format: functional;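 note: channel activity triggered by adding a high calcium stimulation buffer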
cells [2] = assay: cells
[3] = HEp-2 cell cytotoxicity, dose response, cytotoxicity control for RSV inhibitor project, HTS (AID 2410); format: functional; conditions: human respiratory syncytial virus
Hexokinase HKDC1 = target: T1, Hexokinase HKDC1 (Homo sapiens, UniProt Q2TB90); assay: HKDC1 hexokinase inhibitors, dose response, biochemical, W721R variant (AID 504729); format: functional
T1 sequence (Q2TB90 whole entry): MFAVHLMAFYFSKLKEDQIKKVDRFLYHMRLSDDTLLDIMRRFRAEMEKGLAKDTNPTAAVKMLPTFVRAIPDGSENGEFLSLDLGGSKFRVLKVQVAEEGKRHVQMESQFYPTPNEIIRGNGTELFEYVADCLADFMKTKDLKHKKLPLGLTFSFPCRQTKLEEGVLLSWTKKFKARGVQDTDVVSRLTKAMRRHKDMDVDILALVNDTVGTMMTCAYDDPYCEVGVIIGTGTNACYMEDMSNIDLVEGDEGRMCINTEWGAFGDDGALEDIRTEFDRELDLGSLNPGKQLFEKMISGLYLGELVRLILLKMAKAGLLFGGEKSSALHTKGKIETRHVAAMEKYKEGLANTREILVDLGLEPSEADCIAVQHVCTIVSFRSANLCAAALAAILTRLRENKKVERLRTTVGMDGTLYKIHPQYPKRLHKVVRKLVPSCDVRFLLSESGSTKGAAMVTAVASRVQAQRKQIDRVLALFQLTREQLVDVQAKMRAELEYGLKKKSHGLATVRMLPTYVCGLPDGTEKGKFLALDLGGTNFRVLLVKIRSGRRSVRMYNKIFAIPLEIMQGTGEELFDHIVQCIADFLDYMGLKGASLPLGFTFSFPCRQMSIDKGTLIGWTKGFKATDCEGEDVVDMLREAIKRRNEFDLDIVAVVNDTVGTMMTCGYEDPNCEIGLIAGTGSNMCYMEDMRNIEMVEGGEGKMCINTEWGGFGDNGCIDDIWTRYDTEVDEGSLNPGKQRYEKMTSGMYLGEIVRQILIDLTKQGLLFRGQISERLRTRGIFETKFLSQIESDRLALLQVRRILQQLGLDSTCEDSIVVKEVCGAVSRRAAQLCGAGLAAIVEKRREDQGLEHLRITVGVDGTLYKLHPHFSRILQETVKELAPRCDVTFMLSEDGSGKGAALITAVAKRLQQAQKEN

[4] = THP-1 cell cytotoxicity, dose response, cytotoxicity control for non-replicating M. tuberculosis project (AID 489025); format: functional
cells [5] = format: functional
[6] = target: FAD-linked sulfhydryl oxidase ALR (Homo sapiens, UniProt P55789); assay: inhibitors of human ALR sulfhydryl oxidase, dose response, biochemical, H2O2 detection, luminescence, cherry-pick (AID 493248)
[7] = target: T2, Alkaline phosphatase, tissue-nonspecific isozyme (Homo sapiens, UniProt P05186); assay: human TNAP enzyme inhibitors, SAR follow-up, biochemical, luminescent, dose response (AID 1056)
T2 sequence (P05186 whole entry): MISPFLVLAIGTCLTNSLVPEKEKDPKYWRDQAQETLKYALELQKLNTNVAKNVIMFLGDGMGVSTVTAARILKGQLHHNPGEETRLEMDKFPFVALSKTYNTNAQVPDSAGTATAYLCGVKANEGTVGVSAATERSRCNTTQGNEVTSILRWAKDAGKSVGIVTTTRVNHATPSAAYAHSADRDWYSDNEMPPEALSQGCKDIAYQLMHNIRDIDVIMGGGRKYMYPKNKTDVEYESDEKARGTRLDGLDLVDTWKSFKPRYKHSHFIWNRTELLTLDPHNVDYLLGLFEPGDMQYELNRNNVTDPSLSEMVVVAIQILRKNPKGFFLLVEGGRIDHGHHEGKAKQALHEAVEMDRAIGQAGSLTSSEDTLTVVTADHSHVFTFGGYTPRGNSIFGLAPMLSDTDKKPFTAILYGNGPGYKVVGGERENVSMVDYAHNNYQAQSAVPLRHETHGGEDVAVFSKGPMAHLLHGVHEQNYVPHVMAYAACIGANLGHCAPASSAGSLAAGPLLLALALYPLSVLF

[8] = target: Glyceraldehyde-3-phosphate dehydrogenase (Homo sapiens, UniProt P04406)
Coagulation factor XII = target: T3, Coagulation factor XII (Homo sapiens, UniProt P00748); format: functional;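 note: activated factor XIIa alpha cleaving a fluorogenic AMC peptide substrate; inhibitor potency from loss of enzyme activity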
T3 sequence (P00748 whole entry): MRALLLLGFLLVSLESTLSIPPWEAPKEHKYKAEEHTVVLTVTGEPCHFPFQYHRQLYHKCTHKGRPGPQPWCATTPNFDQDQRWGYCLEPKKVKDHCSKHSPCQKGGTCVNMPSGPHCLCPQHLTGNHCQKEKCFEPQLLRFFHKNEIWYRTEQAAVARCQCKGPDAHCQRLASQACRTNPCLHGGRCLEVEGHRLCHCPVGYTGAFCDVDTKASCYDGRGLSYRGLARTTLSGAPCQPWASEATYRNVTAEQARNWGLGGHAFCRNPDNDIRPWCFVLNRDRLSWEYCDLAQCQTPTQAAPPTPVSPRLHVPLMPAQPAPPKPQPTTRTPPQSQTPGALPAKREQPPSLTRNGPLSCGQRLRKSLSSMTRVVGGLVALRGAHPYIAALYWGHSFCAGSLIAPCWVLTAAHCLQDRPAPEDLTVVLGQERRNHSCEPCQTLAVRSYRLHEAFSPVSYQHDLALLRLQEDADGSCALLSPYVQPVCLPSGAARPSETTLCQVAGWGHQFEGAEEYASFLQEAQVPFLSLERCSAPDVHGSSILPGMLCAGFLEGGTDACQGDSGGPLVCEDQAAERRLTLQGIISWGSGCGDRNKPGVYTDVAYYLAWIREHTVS

Cytochrome P450 2D6 = Cytochrome P450 2D6 (Homo sapiens, UniProt P10635);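 note: CYP2D6 member of a cytochrome P450 panel assay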
[9] = target: T4, Calpain-2 catalytic subunit (Sus scrofa, UniProt P43367); assay: pig calpain II inhibitor potency, dose response, biochemical, fluorogenic peptide substrate (AID 1420); format: functional
T4 sequence (P43367 whole entry): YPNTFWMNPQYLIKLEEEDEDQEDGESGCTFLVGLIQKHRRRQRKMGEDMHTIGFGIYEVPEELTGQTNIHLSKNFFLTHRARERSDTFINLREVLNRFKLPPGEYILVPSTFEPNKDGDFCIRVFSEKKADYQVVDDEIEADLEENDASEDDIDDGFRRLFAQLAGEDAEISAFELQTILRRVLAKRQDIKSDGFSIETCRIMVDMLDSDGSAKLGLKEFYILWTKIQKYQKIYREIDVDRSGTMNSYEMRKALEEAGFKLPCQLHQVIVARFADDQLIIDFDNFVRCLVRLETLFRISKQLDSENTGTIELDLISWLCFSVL

Bcl-2-related protein A1 = target: T5, Bcl-2-related protein A1 (Mus musculus, UniProt Q07440); format: functional;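 note: confirmatory dose–response counterscreen on Bfl-1, used to check hits from a UBC13 polyubiquitin inhibitor campaign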
T5 sequence (Q07440 whole entry): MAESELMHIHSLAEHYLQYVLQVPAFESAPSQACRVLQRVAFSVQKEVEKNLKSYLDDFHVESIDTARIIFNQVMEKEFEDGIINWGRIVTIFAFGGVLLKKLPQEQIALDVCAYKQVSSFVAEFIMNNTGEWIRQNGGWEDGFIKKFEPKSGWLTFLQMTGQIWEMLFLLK

Streptokinase A = target: T6, Streptokinase A (Streptococcus pyogenes serotype M1, UniProt P10520); assay: S. pyogenes streptokinase expression inhibitors, potency, dose response, plasminogen activation absorbance, OD405 (AID 1914); format: functional, Streptococcus pyogenes M1 GAS;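 note: secreted streptokinase activity via plasminogen activation per viability signal from cell pellet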
T6 sequence (P10520 whole entry): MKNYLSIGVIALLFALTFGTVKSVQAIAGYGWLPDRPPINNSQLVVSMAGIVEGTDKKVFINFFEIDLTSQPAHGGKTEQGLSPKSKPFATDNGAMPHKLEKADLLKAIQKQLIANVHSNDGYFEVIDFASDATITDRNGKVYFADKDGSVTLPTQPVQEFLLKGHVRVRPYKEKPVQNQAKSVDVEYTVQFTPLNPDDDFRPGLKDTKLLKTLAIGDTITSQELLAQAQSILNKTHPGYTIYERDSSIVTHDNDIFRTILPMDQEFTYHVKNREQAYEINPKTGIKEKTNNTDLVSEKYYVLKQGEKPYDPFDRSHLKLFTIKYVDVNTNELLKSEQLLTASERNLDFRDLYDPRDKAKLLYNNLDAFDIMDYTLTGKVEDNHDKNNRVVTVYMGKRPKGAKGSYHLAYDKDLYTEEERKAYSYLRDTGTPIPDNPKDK

[10] = target: T7, Ubiquitin-conjugating enzyme E2 N (Homo sapiens, UniProt P61088); format: functional
T7 sequence (P61088 whole entry): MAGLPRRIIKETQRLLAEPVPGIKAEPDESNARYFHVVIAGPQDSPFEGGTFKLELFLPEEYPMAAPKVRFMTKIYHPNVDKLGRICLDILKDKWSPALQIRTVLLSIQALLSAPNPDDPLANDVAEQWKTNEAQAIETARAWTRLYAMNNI

[11] = target: T7, Ubiquitin-conjugating enzyme E2 N; format: functional; remark: listed apart in the source
Streptococcus = assay: Group A Streptococcus viability loss, dose response, counter-screen for streptokinase expression inhibitor project, luminescence, BacTiterGlo (AID 1915); format: functional, organism-based;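 note: potency for reduction of bacterial viability or growth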
[12] = tested on: Streptococcus sp. 'group A'; assay: growth inhibition of control SK(-) GAS strain, dose response, counter-screen for streptokinase expression inhibitor project, luminescence, kanamycin, BacTiterGlo, confirmation (AID 1900); format: functional, organism-based
cells [13] = format: functional, cell-based
cells [14] = format: functional, cell-based; remark: listed apart in the source
Cytochrome P450 2C9 = Cytochrome P450 2C9 (Homo sapiens, UniProt P11712)
Cytochrome P450 2C9, sequence (P11712 whole entry): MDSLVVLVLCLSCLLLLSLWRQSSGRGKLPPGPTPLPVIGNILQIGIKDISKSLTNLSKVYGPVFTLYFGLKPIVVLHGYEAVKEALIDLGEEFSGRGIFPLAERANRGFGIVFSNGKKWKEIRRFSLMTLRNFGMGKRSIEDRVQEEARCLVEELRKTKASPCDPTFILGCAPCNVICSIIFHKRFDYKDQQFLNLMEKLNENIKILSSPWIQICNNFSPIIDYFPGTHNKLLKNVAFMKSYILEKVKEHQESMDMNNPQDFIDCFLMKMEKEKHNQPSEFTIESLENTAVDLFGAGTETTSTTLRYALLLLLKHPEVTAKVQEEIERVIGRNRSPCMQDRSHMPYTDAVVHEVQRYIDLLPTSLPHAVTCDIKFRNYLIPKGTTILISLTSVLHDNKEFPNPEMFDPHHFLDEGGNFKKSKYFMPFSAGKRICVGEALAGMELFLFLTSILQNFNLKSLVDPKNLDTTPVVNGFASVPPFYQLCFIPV

Nonstructural protein 1, sequence (Q194T2 whole entry): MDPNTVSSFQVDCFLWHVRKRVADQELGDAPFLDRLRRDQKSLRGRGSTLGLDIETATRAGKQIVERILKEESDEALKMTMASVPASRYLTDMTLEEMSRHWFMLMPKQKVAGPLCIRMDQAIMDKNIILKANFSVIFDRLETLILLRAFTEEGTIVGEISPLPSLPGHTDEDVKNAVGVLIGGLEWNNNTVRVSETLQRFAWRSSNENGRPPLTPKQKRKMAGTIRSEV
Glyceraldehyde-3-phosphate dehydrogenase, sequence (P04406 whole entry): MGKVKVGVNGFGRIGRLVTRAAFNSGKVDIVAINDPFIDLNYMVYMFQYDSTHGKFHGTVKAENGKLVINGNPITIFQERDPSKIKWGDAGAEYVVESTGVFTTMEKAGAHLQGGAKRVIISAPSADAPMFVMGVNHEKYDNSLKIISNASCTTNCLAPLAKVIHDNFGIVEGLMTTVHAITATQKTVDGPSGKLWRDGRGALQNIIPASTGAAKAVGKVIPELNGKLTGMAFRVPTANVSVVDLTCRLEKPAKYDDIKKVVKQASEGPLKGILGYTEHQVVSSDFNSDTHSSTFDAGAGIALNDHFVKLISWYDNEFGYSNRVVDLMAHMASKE
Cytochrome P450 2D6, sequence (P10635 whole entry): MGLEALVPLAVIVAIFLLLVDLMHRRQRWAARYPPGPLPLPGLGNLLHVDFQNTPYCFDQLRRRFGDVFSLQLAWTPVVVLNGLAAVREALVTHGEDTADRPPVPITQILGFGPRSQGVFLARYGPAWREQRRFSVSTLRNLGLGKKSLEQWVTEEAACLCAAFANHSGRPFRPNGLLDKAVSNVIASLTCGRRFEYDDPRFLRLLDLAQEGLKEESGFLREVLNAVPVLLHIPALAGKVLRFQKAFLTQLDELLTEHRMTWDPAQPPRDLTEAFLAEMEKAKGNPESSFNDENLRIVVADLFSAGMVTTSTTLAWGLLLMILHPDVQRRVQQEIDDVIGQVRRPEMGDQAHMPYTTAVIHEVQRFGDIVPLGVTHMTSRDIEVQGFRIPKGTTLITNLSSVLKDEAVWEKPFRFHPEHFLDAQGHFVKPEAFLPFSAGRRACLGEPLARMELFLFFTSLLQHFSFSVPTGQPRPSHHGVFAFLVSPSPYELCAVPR
Voltage-dependent T-type calcium channel subunit alpha-1H, sequence (O95180 whole entry): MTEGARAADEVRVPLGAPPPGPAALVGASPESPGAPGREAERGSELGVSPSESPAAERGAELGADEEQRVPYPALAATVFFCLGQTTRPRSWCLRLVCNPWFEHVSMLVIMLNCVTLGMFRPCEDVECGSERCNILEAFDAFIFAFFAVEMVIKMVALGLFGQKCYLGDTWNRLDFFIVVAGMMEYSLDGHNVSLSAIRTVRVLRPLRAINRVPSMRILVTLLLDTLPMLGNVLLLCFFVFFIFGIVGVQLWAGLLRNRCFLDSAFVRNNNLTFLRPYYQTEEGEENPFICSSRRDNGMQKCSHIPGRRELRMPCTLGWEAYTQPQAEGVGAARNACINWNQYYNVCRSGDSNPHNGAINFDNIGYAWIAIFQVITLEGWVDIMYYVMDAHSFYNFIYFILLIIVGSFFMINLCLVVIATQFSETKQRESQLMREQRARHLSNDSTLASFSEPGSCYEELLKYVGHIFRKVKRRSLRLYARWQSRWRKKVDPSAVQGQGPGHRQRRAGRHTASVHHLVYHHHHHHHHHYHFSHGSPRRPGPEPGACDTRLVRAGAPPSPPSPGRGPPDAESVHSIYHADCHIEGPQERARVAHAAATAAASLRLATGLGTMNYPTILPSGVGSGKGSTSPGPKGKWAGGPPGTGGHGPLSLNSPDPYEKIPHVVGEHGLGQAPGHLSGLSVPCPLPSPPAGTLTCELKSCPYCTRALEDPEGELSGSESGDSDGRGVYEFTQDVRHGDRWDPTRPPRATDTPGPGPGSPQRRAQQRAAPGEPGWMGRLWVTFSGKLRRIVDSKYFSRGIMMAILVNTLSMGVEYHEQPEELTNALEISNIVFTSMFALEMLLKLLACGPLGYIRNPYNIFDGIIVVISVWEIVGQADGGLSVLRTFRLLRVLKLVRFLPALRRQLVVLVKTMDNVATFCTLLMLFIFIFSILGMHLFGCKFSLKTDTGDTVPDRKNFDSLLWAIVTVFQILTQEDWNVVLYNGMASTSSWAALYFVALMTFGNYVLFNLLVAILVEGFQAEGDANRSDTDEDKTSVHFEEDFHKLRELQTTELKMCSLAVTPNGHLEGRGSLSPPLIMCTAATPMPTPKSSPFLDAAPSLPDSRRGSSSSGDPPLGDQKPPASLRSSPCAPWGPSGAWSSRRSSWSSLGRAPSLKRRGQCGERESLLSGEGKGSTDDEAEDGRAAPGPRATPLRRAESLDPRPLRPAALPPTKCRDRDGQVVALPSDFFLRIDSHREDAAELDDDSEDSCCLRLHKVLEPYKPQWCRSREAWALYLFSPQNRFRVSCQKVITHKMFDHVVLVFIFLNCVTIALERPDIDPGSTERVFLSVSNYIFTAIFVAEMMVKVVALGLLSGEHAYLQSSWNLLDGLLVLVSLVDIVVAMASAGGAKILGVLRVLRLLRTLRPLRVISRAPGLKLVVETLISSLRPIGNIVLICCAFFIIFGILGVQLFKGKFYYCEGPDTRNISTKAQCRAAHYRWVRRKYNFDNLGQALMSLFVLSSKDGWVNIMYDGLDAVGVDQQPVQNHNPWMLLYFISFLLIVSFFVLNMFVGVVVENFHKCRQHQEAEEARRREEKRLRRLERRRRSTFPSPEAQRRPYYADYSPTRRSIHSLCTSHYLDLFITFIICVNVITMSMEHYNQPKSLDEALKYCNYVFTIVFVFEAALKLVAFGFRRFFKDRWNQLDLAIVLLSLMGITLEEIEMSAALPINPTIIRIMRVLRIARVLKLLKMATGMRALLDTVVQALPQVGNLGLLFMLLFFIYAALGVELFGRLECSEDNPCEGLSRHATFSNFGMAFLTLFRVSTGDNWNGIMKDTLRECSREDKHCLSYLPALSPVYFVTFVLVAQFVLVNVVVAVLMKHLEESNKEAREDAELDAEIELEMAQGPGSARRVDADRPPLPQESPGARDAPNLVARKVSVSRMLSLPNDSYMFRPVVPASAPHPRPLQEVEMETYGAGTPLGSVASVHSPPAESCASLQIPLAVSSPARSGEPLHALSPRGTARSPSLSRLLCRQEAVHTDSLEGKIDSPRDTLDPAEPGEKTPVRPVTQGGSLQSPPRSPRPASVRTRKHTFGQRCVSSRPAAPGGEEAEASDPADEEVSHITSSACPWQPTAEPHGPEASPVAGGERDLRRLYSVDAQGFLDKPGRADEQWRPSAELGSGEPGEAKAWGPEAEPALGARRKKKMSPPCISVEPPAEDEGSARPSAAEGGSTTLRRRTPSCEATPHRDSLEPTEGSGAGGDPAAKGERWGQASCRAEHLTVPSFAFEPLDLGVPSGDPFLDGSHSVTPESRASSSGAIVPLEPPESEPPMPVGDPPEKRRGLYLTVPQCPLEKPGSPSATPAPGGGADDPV
FAD-linked sulfhydryl oxidase ALR, sequence (P55789 whole entry): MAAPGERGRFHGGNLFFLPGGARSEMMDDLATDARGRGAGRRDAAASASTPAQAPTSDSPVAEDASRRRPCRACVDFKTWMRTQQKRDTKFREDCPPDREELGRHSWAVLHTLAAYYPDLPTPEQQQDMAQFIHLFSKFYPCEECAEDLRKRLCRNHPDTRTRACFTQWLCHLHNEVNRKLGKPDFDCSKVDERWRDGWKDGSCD

Question: With `COc1ccc(NC(=O)CSc2n[nH]c(-c3ccccn3)n2)cc1` as the compound, how does the IC50 (Nonstructural protein 1) read?
Answer: 4.25 µM (active)

Question: With `COc1cccc(C(=O)N(Cc2nc(-c3cccc(C)c3)no2)C(C)C)c1OC` as the compound, how does the EC50 [1] read?
Answer: 12.7 µM (active)

Question: And the IC50 (cells [2])?
Answer: 4.69 µM (active)

Question: And the CC50 [3]?
Answer: 30.6 µM (active)

Question: For `CCc1nc2c(c(=O)c3ccccc3n2C)c(=O)n1-c1ccc(F)cc1`, which IC50 (Hexokinase HKDC1) is on record?
Answer: 7.9 µM (active)

Question: With `Cc1ccc(-c2nc3ccccn3c2Nc2ccccc2)o1` as the compound, how does the CC50 [4] read?
Answer: > 40 µM (active)

Question: What about the IC50 (cells [5]) of the same compound?
Answer: 19.7 µM (active)

Question: And the AC50 [6]?
Answer: 0.235 µM (active)

Question: For `O=S(=O)(Nc1cccnc1)c1cc(Cl)cc(Cl)c1O`, which IC50 [7] is on record?
Answer: > 100 µM (inactive)

Question: What about the IC50 [8] of the same compound?
Answer: > 100 µM (not active)

Question: For `Cc1ccc(NC(=O)CSCC(N)=O)cc1C`, which IC50 (Coagulation factor XII) is on record?
Answer: > 50 µM (inactive)

Question: With `O=C(CSc1nnc(CCCN2C(=O)c3cccc4cccc(c34)C2=O)n1-c1ccccc1)N1CCCCC1` as the compound, how does the IC50 (Hexokinase HKDC1) read?
Answer: 11.4 µM (active)

Question: With `O=C(Cc1ccccc1)NC(NC(=S)Nc1cc(Cl)ccc1Cl)C(Cl)(Cl)Cl` (configuration not stated) as the compound, how does the IC50 (Coagulation factor XII) read?
Answer: > 50 µM (inactive)

Question: What about the AC50 (Cytochrome P450 2D6) of the same compound?
Answer: 3.16 µM (inconclusive)

Question: What about the IC50 [9] of the same compound?
Answer: > 50 µM (not active)

Question: Which IC50 (Coagulation factor XII) does the source give for `O=C(CN(Cc1cccs1)C(=O)CCC(=O)Nc1nccs1)NCc1ccccc1` here?
Answer: > 50 µM (inactive)

Question: With `c1cncc(-c2cncnc2)c1` as the compound, how does the IC50 [7] read?
Answer: > 100 µM (inactive)

Question: And the IC50 [8]?
Answer: > 100 µM (not active)

Question: Which IC50 (Bcl-2-related protein A1) does the source give for `CC1CC(C)(C)n2c(O)c(/N=N/C(=N)S)c3cccc1c32` (configuration not stated) here?
Answer: > 20 µM (inactive)

Question: What about the EC50 (Streptokinase A) of the same compound?
Answer: > 150 µM (not active)

Question: What about the IC50 [10] of the same compound?
Answer: 6.33 µM (active)

Question: What about the IC50 [11] of the same compound?
Answer: 4.95 µM (active)

Question: And the EC50 (Streptococcus)?
Answer: > 150 µM (not active)

Question: And the EC50 [12]?
Answer: 9.25 µM (active)

Question: With `O=C(O)c1ccc(/N=C/c2c(O)ccc3ccccc23)cc1` as the compound, how does the IC50 (Hexokinase HKDC1) read?
Answer: 38.1 µM (inactive)

Question: For `N#C/C(=N\Nc1ccccc1)C(N)=S`, which IC50 (Coagulation factor XII) is on record?
Answer: > 50 µM (inactive)

Question: With `COc1ccc(C(=O)N/N=C/c2cccc3cccnc23)cc1` as the compound, how does the EC50 (cells [13]) read?
Answer: > 350 µM (not active)

Question: And the CC50 [4]?
Answer: 14.7 µM (active)

Question: What about the IC50 (Nonstructural protein 1) of the same compound?
Answer: 5.8 µM (active)

Question: What about the IC50 (cells [5]) of the same compound?
Answer: 3.44 µM (active)

Question: And the EC50 (cells [14])?
Answer: 15.5 µM (active)

Question: And the AC50 (Cytochrome P450 2C9)?
Answer: inconclusive
